Laboratory results from ChEMBL document CHEMBL5244250, “Natural sesquiterpenoid oligomers: A chemical perspective” (Eur J Med Chem, 2020).
≈ marks a conversion by molar mass, not a printed value.

Legend:
[1] = test system: RAW264.7; assay: Anti-inflammatory activity in LPS induced mouse RAW264.7 cells assessed as inhibition of NO production; format: functional, cell-based
[2] = test system: RAW264.7; assay: Anti-inflammatory activity in LPS induced mouse RAW264.7 cells assessed as inhibition of NO production by MTT method; format: functional, cell-based
[3] = test system: HL-60; assay: Cytotoxicity against human HL-60 cells assessed as inhibition of cell growth; format: functional, cell-based
[4] = test system: L1210; assay: Cytotoxicity against mouse L1210 cells assessed as reduction in cell viability; format: functional, cell-based
[5] = test system: KB; assay: Cytotoxicity against human KB cells assessed as reduction in cell viability; format: functional, cell-based
[6] = test system: HepG2; assay: Cytotoxicity against human HepG2 cells incubated for 48 hrs by MTT based colorimetry assay; format: functional, cell-based; conditions: HepG2, 48 h
[7] = test system: CCRF S-180; assay: Cytotoxicity against mouse CCRF S-180 cells incubated for 48 hrs by MTT based colorimetry assay; format: functional, cell-based; conditions: CCRF S-180, 48 h
[8] = test system: MGC-803; assay: Cytotoxicity against human MGC-803 cells incubated for 48 hrs by MTT based colorimetry assay; format: functional, cell-based; conditions: MGC-803, 48 h
[9] = Cytotoxicity against human 6T-CEM cells; format: functional, cell-based
[10] = test system: RAW264.7; assay: Anti-inflammatory activity in LPS induced mouse RAW264.7 cells assessed as inhibition of NO production pretreated for 1 hr followed by LPS stimulation and measured after 18 hrs by MTT assay; format: functional; conditions: time 19 hrs, read-out: ED50 (the source's name)
[11] = test system: HeLa; assay: Cytotoxicity against human HeLa cells incubated for 48 hrs by WST-8 assay; format: functional, cell-based
[12] = test system: HL-60; assay: Cytotoxicity against human HL-60 cells incubated for 48 hrs by WST-8 assay; format: functional, cell-based; conditions: HL-60, 48 h
[13] = test system: B16-F10; assay: Cytotoxicity against mouse B16-F10 cells incubated for 48 hrs by WST-8 assay; format: functional, cell-based; conditions: B16-F10, 48 h
[14] = test system: HL-60; assay: Cytotoxicity against human HL-60 cells; format: functional, cell-based
[15] = test system: U2OS; assay: Synergistic cytotoxicity in human U2OS cells assessed as combination index in presence of doxorubicin; format: functional
[16] = test system: CCRF-CEM; assay: Cytotoxicity against human CCRF-CEM cells; format: functional, cell-based

Structure (SMILES): C=C1C(=O)O[C@@H]2[C@@H]3[C@@H](C[C@@]4(O)[C@]3(O)CC[C@]43C(=O)C[C@H]4C(=C)CC[C@H]5C(=C)C(=O)O[C@@H]5[C@H]43)C(=C)CC[C@@H]12
- IC50 [1]: 2.41 µg/mL (≈ 4.76 µM)

Structure (SMILES): C=C1CC[C@H]2C(=C)CC[C@@H]3[C@H](OC(=O)[C@]3(CC(C)O)C[C@@H]3C(=O)O[C@H]4[C@H]3CCC(=C)[C@@H]3CCC(=C)[C@@]34C)[C@@H]12 (some centres undefined)
- IC50 [2]: 2460 nM

Structure (SMILES): C[C@H](O)CC[C@H]1[C@@H]2C[C@H]3[C@@H](C[C@]12C)OC(=O)C31CC2(CO1)C(=O)O[C@@H]1C[C@]3(C)[C@@H](CC[C@@H](C)O)[C@@H]3C[C@@H]12 (some centres undefined)
- IC50 [3]: 8700 nM

Structure (SMILES): C=C1CCC[C@]2(C)CC[C@@H](C(C)C)[C@H](NC(=O)N(CC(=O)O)[C@@H]3[C@H]4C(=C)CCC[C@]4(C)CC[C@H]3C(C)C)[C@@H]12
- IC50 [4]: 2.6 µg/mL (≈ 4.94 µM)
- IC50 [5]: 2.6 µg/mL (≈ 4.94 µM)

Structure (SMILES): CC(=O)C1=C(Oc2oc3cc4c(c(C)c3c2C)[C@@H](C)CCC4)C[C@H]2CCC[C@H](C)[C@@]2(C)C1
- IC50 [6]: 11900 nM
- IC50 [7]: 11900 nM
- IC50 [8]: 11900 nM

Structure (SMILES): C=C1C(=O)O[C@H]2C[C@H](C)C3=C(C[C@H]12)[C@@]1(C)OC(=O)[C@@H](c2ccc(C)c([C@H](C)CCCOC(C)=O)c2)C[C@H]1[C@H]3OC(C)=O
- IC50 [9]: 4400 nM

Structure (SMILES): C=C(C)[C@@H]1c2oc3c(c2C(=O)C2=CCC[C@@H](C)[C@@]21C)C(=O)C[C@]1(C)C3=CCC[C@H]1C
- EC50 [10]: 23600 nM

Structure (SMILES): C=C1CCC[C@]2(C)CC[C@@H](C(C)C)[C@H](NC(=O)NC(C)(C)[C@@H]3C=C4[C@@H](C)CCC[C@]4(C)CC3)[C@@H]12
- IC50 [4]: 2.6 µg/mL (≈ 5.55 µM)
- IC50 [5]: 2.6 µg/mL (≈ 5.55 µM)

Structure (SMILES): C=C1C(=O)O[C@@H]2/C=C(\C)CC/C=C(/C(=O)OC)[C@H](OCC)[C@@H](OC(=O)[C@](C)(O)[C@H](C)OC(=O)/C3=C/CC/C(C)=C/[C@H]4OC(=O)C(=C)[C@@H]4[C@H](OC(=O)/C(C)=C\C)C3)[C@@H]12
- IC50 [11]: 200 nM
- IC50 [12]: 200 nM
- IC50 [13]: 200 nM

Structure (SMILES): C=C1C(=O)O[C@H]2C[C@H](C)C3=C(C[C@H]12)[C@]1(C)C[C@H]3C[C@@]12C(=O)O[C@@H]1C[C@H](C)C(CC[C@H](C)O)=CC[C@@H]12
- IC50 [14]: 4900 nM

Structure (SMILES): C=C1C(=O)O[C@H]2[C@H]1[C@H](OC(=O)[C@](C)(O)[C@H](C)OC(=O)/C1=C/CC/C(C)=C/[C@H]3OC(=O)C(=C)[C@@H]3[C@H](OC(=O)/C(C)=C\C)C1)[C@@H](OCC)/C(C(=O)OC)=C\CC[C@]1(C)O[C@@H]21
- IC50 [11]: 200 nM
- IC50 [12]: 200 nM
- IC50 [13]: 200 nM

Structure (SMILES): COC(=O)/C(C)=C1\C(=O)[C@H](O)[C@@]2(C)[C@@H]3C[C@@H]3[C@@]34CCC5=C6C3=C(C(=O)[C@H](O)[C@@]6(C)[C@@H]3C[C@H]53)[C@](C)(C(C)=O)[C@@H]1[C@@]24O
- CI [15]: 1.12

Structure (SMILES): C=C1C(=O)O[C@H]2C[C@H](C)C3=C(C[C@H]12)[C@@]1(C)C[C@@H]3C[C@@]12C(=O)O[C@@H]1C[C@@]3(C)[C@@H](O)C[C@@H](O)C(=C)[C@@H]3C[C@@H]12
- IC50 [16]: 140 nM

Structure (SMILES): C=C1C(=O)O[C@H]2C[C@H](C)[C@@]34C[C@@H](C[C@@]35C(=O)O[C@@H]3C[C@@]6(C)[C@@H](O)C[C@@H](O)C(=C)[C@@H]6C[C@@H]35)C(C)=C4C[C@H]12
- IC50 [16]: 140 nM

Structure (SMILES): C=C1C(=O)O[C@H]2C[C@H](C)[C@@]34C[C@@H](C[C@@]35C(=O)O[C@H]3CC(=C)[C@H]6CC[C@@](C)(O)[C@@H]6C[C@@H]35)C(C)=C4C[C@H]12
- IC50 [16]: 2030 nM

Structure (SMILES): C=C1CC[C@H]2C(=C)CC[C@@H]3[C@H](OC(=O)[C@]3(CC(C)=O)C[C@@H]3C(=O)O[C@@H]4/C=C(/C)CC/C=C(/C)CC[C@@H]34)[C@@H]12
- IC50 [2]: 1880 nM
